In publication PMC11211441, “Distributable, metabolic PET reporting of tuberculosis” (Nature Communications, 2024):

What was measured:
[1] = Single and repeat iv dose toxicity study in dogs; assay type: in vivo; conditions: beagle dogs, 100 x or 1000 x expected human dose iv
Protocol: For toxicity studies, 2 g of [^19F]-FDT was synthesized and tested for quality control as described above and in Figs.39 and shipped to a contract research organization. Toxicity studies were conducted by SRI International, Biosciences Division, Menlo Park, CA, USA in rats and dogs. The experimental design is described in Tables S10, S11, respectively.
To assess the toxicity associated with [^19F]-FDT in dogs, male and female Beagle dogs (5/sex) were given a daily iv injection of [^19F]-FDT at 0.4 mg/kg/day (100 times of human dose; Group 2) for 7 consecutive days, or a single iv administration of [^19F]-FDT at 0.4 or 4 mg/kg (100 and 1000 times of human dose in Groups 3 and 4, respectively) on Day 7. A control group (5/sex; Group 1), was given 7 days of vehicle (HEPES buffer, pH 7.5, 50 mM with MgCl2 7.5 mM), at an equivalent dose volume of 0.25 ml/kg on Days 1–7. Animals were sacrificed on Day 9 (3/sex/ group; main groups) or Day 21 (2/sex/group; recovery groups). The single dose administration for Groups 3–4 were initiated on Day 7 so that clinical pathology and necropsy occurred on the same calendar day for all Groups (1–4), thus allowing for sharing of vehicle control data for analysis of clinical pathology and necropsy results between the two dose regimens.

[2] = [19F]FDT in vivo stability in mice (plasma/urine LC-MS, 19F NMR); conditions: mice (n = 5), LC-MS and 19F-NMR
Protocol: For initial in vivo study, six white mice, CD1, male, weighing between 22–26 grams, were used. Two concentrations of [^19F]FDT (500 μM and 50 μM, final concentration in the blood) were injected into the mice, through the tail vein injection. Prior to injection, each mouse was pre-bled (100 μL) and control samples were obtained. […] Samples were spun at 13000 rpm (15871 x g) for 10 min and the supernatant (plasma) was used for further analysis. 200 μL of plasma sample was transferred into fresh 1.5 mL Eppendorf tube and diluted with equal amount of acetonitrile to precipitate out blood plasma protein and other macromolecules. Samples were further spun at 13000 rpm (15871 x g) for 5 min.
In order to determine [^19F]FDT metabolism in vivo, we assessed concentration vs time in two mammalian species: common marmosets and C57BL/6 mice. For marmosets weighing between 290.3–340.3 g, 20 mg of sterile-filtered FDT in PBS was injected IV (n = 3) and ~200 μL blood samples were taken from the femoral vein at 0 min, 5 min, 30 min, 60 min, 90 min and 180 min post injection. […]
A, B) 20 mg [19F]FDT was injected into marmosets (A, n=3 biological replicates, each measured in duplicate) and 5 mg FDT injected into mice (B, n=5 biological replicates, each measured in triplicate). […]
[19F]FDG was detected, consistent with the only low levels of metabolism seen with [18F]FDT in rabbits (see Figure S3G). […]

OC[C@H]1O[C@H](O[C@H]2O[C@H](CO)[C@@H](O)[C@H](O)[C@H]2F)[C@H](O)[C@@H](O)[C@@H]1O [[^19F]FDT]
adverse findings in any parameters measured [1]: no adverse findings | degradation in plasma / in vivo [2]: no detectable degradation | degradation in plasma / in vivo ([2]; listed as [19F]FDT): no degradation
